Each structure is given as a SMILES string.

The test system of the test is patients suspected of having stunned or hibernating myocardium. In words: Dobutamine echocardiography, regional wall motion during D-Ribose or placebo infusion (randomized, double-blind, crossover clinical trial). It is filed as in vivo. The conditions noted are these: during low-dose dobutamine infusion (5μ/kg/minute); D-Ribose 10% in water iv at 180 mg/kg/hour; 25 patients, 16 left ventricular segments each. As to the method: A single-center, randomized, double-blind placebo-controlled clinical trial was carried out to evaluate the safety and efficacy of D-Ribose on myocardial wall motion during echocardiographic examination in patients suspected of having stunned or hibernating myocardium. Patients were randomized into placebo and ribose groups according to a computer generated randomization schedule. The identity of the contents was blinded to the investigator. Patients were identified by initials. The selected study population was comprised of 25 patients (22 men and 3 women) with a mean age of 57+/−11 years. All had reduced left ventricular systolic function (mean ejection fraction 30+/−8%, range 18 to 48%). Twenty-two patients (88%) had prior myocardial infarction and only one subject was evaluated after recent (<4 weeks) infarction. […] Post-infusion images were recorded approximately eight minutes after discontinuation of dobutamine. […] Parasternal long and short-axis and apical two and four-chamber images were recorded on 0.5 inch videotape and digitally stored on floppy discs using a Nova MicroSonics DCR or Colorvue system (Mahwah, N.J.). […]

On to `O=C[C@H](O)[C@H](O)[C@H](O)CO` [D-Ribose], for which the “segments in which wall motion improved” value is listed as 65 segments.

For the origin of these results see patent publication US6339716B1, “Method for determining viability of a myocardial segment” (Bioenergy Inc., priority 1999, dated 2002).
